The text below walks through data of US9102752B2, “Peptide vaccine for prevention and immunotherapy of dementia of the Alzheimer's type” (United Biomedical, Inc., priority 2013, dated 2015).

Assay [1] has as its system anti-Aβ antibodies in sera of vaccinated patients. Put plainly: Epitope mapping, competitive binding inhibition EIA with patient sera (10-mer peptides, IC50). Particulars: for Epitope mapping, fine specificity analysis, serum of subject P101: serum 16 wpi of vaccinated patient P101; for Epitope mapping, fine specificity analysis, serum of subject P102: serum 16 wpi of vaccinated patient P102; for Epitope mapping, fine specificity analysis, serum of subject P103: serum 16 wpi of vaccinated patient P103; for Epitope mapping, fine specificity analysis, serum of subject P104: serum 16 wpi of vaccinated patient P104; for Epitope mapping, fine specificity analysis, serum of subject P105: serum 16 wpi of vaccinated patient P105; for Epitope mapping, fine specificity analysis, serum of subject P106: serum 16 wpi of vaccinated patient P106; for Epitope mapping, fine specificity analysis, serum of subject P107: serum 16 wpi of vaccinated patient P107; for Epitope mapping, fine specificity analysis, serum of subject P108: serum 16 wpi of vaccinated patient P108; for Epitope mapping, fine specificity analysis, serum of subject P109: serum 16 wpi of vaccinated patient P109; for Epitope mapping, fine specificity analysis, serum of subject P201: serum 16 wpi of vaccinated patient P201; for Epitope mapping, fine specificity analysis, serum of subject P202: serum 16 wpi of vaccinated patient P202; for Epitope mapping, fine specificity analysis, serum of subject P203: serum 16 wpi of vaccinated patient P203; for Epitope mapping, fine specificity analysis, serum of subject P204: serum 16 wpi of vaccinated patient P204; for Epitope mapping, fine specificity analysis, serum of subject P205: serum 16 wpi of vaccinated patient P205; for Epitope mapping, fine specificity analysis, serum of subject P206: serum 16 wpi of vaccinated patient P206; for Epitope mapping, fine specificity analysis, serum of subject P207: serum 16 wpi of vaccinated patient P207; for Epitope mapping, fine specificity analysis, serum of subject P208: serum 16 wpi of vaccinated patient P208; for Epitope mapping, fine specificity analysis, serum of subject P209: serum 16 wpi of vaccinated patient P209; for Epitope mapping, fine specificity analysis, serum of subject P210: serum 16 wpi of vaccinated patient P210. Details: species or system human; Epitope mapping, fine specificity analysis, serum of subject P210: unit not given here.

Assay [2] relates to anti-Aβ antibodies in macaque antisera. Put plainly: Specificity analysis (10-mer peptide ELISA) of antisera from Cynomolgus macaques. Format: binding. On the technique in general: An ELISA detects its analyte on a solid surface through an enzyme-linked reagent.
Setting [3] is: antisera of macaques given UBI AD Vaccine 150 μg/dose, 9 WPI.
Setting [4] is: antisera of macaques given UBI AD Vaccine 150 μg/dose, 15 WPI.
Setting [5] is: antisera of macaques given UBI AD Vaccine 750 μg/dose, 9 WPI.
Where [6] appears, read: antisera of macaques given UBI AD Vaccine 750 μg/dose, 15 WPI.

Turning to “25 (YEVHHQKLVF; PEPTIDE (1)..(10) Abeta 10-19 or APP 770(Y681-F690); listed as Homo sapiens) [compound 25]”, in assay [1], the “Epitope mapping, fine specificity analysis, serum of subject P101” value (“Epitope mapping … of subject P101” for short) amounted to 0; the “Epitope mapping, fine specificity analysis, serum of subject P102” value (“Epitope mapping … of subject P102” below) is 0; the “Epitope mapping, fine specificity analysis, serum of subject P103” value (shortened to “Epitope mapping … of subject P103”) amounted to 0; the “Epitope mapping, fine specificity analysis, serum of subject P104” value (“Epitope mapping … of subject P104” for short) came to 0. In addition, in assay [1], the “Epitope mapping, fine specificity analysis, serum of subject P105” value (“Epitope mapping … of subject P105” below) was determined as 0; the “Epitope mapping, fine specificity analysis, serum of subject P106” value (shortened to “Epitope mapping … of subject P106”) is 0; the “Epitope mapping, fine specificity analysis, serum of subject P107” value (“Epitope mapping … of subject P107” for short) was determined as 0; the “Epitope mapping, fine specificity analysis, serum of subject P108” value (“Epitope mapping … of subject P108” below) stood at 0. Further, in assay [1], the “Epitope mapping, fine specificity analysis, serum of subject P109” value (shortened to “Epitope mapping … of subject P109”) stood at 0; the “Epitope mapping, fine specificity analysis, serum of subject P201” value (“Epitope mapping … of subject P201” for short) was 0; the “Epitope mapping, fine specificity analysis, serum of subject P202” value (“Epitope mapping … of subject P202” below) was 0; the “Epitope mapping, fine specificity analysis, serum of subject P203” value (shortened to “Epitope mapping … of subject P203”) is reported as 0. Moreover, in assay [1], the “Epitope mapping, fine specificity analysis, serum of subject P204” value (“Epitope mapping … of subject P204” for short) is listed as 0; the “Epitope mapping, fine specificity analysis, serum of subject P205” value (“Epitope mapping … of subject P205” below) amounted to 0; the “Epitope mapping, fine specificity analysis, serum of subject P206” value (shortened to “Epitope mapping … of subject P206”) worked out at 0; the “Epitope mapping, fine specificity analysis, serum of subject P207” value (“Epitope mapping … of subject P207” for short) is 10. In assay [1], the “Epitope mapping, fine specificity analysis, serum of subject P208” value (“Epitope mapping … of subject P208” below) is given as 0; the “Epitope mapping, fine specificity analysis, serum of subject P209” value (shortened to “Epitope mapping … of subject P209”) stood at 0; the “Epitope mapping, fine specificity analysis, serum of subject P210” value (“Epitope mapping … of subject P210” for short) turned out to be 0. Moreover, the “Reactivity of antisera with peptide (specificity analysis ELISA)” value (“Reactivity of antisera with peptide” below) in assay [2] (setting [3]) came to 0.092. Also, in assay [2] (setting [4]), the “Reactivity of antisera with peptide” value came to 0.069. Besides, in assay [2] (setting [5]), the “Reactivity of antisera with peptide” value stood at 0.069. Further, in assay [2] (setting [6]), the “Reactivity of antisera with peptide” value worked out at 0.058.
For the substance “23 (SGYEVHHQKL; PEPTIDE (1)..(10) Abeta 8-17 or APP 770(S679-L688); listed as Homo sapiens) [compound 23]”, in assay [1], the “Epitope mapping … of subject P101” value came out at 0; the “Epitope mapping … of subject P102” value came out at 0; the “Epitope mapping … of subject P103” value is 0; the “Epitope mapping … of subject P104” value was 0. Besides, in assay [1], the “Epitope mapping … of subject P105” value stood at 0; the “Epitope mapping … of subject P106” value is 0; the “Epitope mapping … of subject P107” value is given as 0; the “Epitope mapping … of subject P108” value worked out at 0. In assay [1], the “Epitope mapping … of subject P109” value is listed as 0; the “Epitope mapping … of subject P201” value is recorded as 0; the “Epitope mapping … of subject P202” value was determined as 0; the “Epitope mapping … of subject P203” value worked out at 0. In addition, in assay [1], the “Epitope mapping … of subject P204” value was 0; the “Epitope mapping … of subject P205” value is given as 0; the “Epitope mapping … of subject P206” value is 0; the “Epitope mapping … of subject P207” value worked out at 0. Also, in assay [1], the “Epitope mapping … of subject P208” value was found to be 0; the “Epitope mapping … of subject P209” value amounted to 0; the “Epitope mapping … of subject P210” value was determined as 0. For the same substance, the “Reactivity of antisera with peptide” value in assay [2] (setting [3]) is reported as 0.097. For the same substance, in assay [2] (setting [4]), the “Reactivity of antisera with peptide” value turned out to be 0.071. Also, the “Reactivity of antisera with peptide” value in assay [2] (setting [5]) stood at 0.077. Further, the “Reactivity of antisera with peptide” value in assay [2] (setting [6]) is reported as 0.082.
Turning to “14 (VKMDAEFRHD; PEPTIDE (1)..(10) Abeta -3-7 or APP 770(V669-D678); listed as Homo sapiens) [compound 14]”, in assay [1], the “Epitope mapping … of subject P101” value came to 31; the “Epitope mapping … of subject P102” value was determined as 0; the “Epitope mapping … of subject P103” value is on record as 0; the “Epitope mapping … of subject P104” value is listed as 0. Also, in assay [1], the “Epitope mapping … of subject P105” value was 0; the “Epitope mapping … of subject P106” value is reported as 0; the “Epitope mapping … of subject P107” value came out at 0; the “Epitope mapping … of subject P108” value was 0. In assay [1], the “Epitope mapping … of subject P109” value came out at 0; the “Epitope mapping … of subject P201” value is 0; the “Epitope mapping … of subject P202” value amounted to 0; the “Epitope mapping … of subject P203” value is listed as 0. In assay [1], the “Epitope mapping … of subject P204” value is listed as 1; the “Epitope mapping … of subject P205” value came to 0; the “Epitope mapping … of subject P206” value stood at 0; the “Epitope mapping … of subject P207” value is recorded as 0. In addition, in assay [1], the “Epitope mapping … of subject P208” value was determined as 0; the “Epitope mapping … of subject P209” value is reported as 0; the “Epitope mapping … of subject P210” value is given as 13. In addition, the “Reactivity of antisera with peptide” value in assay [2] (setting [3]) is on record as 0.068. In addition, in assay [2] (setting [4]), the “Reactivity of antisera with peptide” value stood at 0.053. The “Reactivity of antisera with peptide” value in assay [2] (setting [5]) is recorded as 0.061. Further, the “Reactivity of antisera with peptide” value in assay [2] (setting [6]) stood at 0.054.
Turning to “22 (DSGYEVHHQK; PEPTIDE (1)..(10) Abeta 7-16 or APP 770(D678-K687); listed as Homo sapiens) [compound 22]”, in assay [1], the “Epitope mapping … of subject P101” value turned out to be 214; the “Epitope mapping … of subject P102” value is 0; the “Epitope mapping … of subject P103” value was 0; the “Epitope mapping … of subject P104” value was 0. For the same substance, in assay [1], the “Epitope mapping … of subject P105” value worked out at 0; the “Epitope mapping … of subject P106” value is listed as 0; the “Epitope mapping … of subject P107” value is given as 0; the “Epitope mapping … of subject P108” value is 0. Besides, in assay [1], the “Epitope mapping … of subject P109” value stood at 0; the “Epitope mapping … of subject P201” value was found to be 0; the “Epitope mapping … of subject P202” value is on record as 0; the “Epitope mapping … of subject P203” value came to 0. For the same substance, in assay [1], the “Epitope mapping … of subject P204” value is on record as 0; the “Epitope mapping … of subject P205” value stood at 0; the “Epitope mapping … of subject P206” value came to 0; the “Epitope mapping … of subject P207” value worked out at 0. Moreover, in assay [1], the “Epitope mapping … of subject P208” value stood at 0; the “Epitope mapping … of subject P209” value worked out at 0; the “Epitope mapping … of subject P210” value came to 0. For the same substance, in assay [2] (setting [3]), the “Reactivity of antisera with peptide” value amounted to 0.270. The “Reactivity of antisera with peptide” value in assay [2] (setting [4]) was found to be 0.289. For the same substance, in assay [2] (setting [5]), the “Reactivity of antisera with peptide” value is listed as 0.405. In addition, the “Reactivity of antisera with peptide” value in assay [2] (setting [6]) was 0.197.
Take “29 (HQKLVFFAED; PEPTIDE (1)..(10) Abeta 14-23 or APP 770(H685-D694); listed as Homo sapiens) [compound 29]”: in assay [1], the “Epitope mapping … of subject P101” value was 0; the “Epitope mapping … of subject P102” value amounted to 0; the “Epitope mapping … of subject P103” value is on record as 0; the “Epitope mapping … of subject P104” value was 0. For the same substance, in assay [1], the “Epitope mapping … of subject P105” value is 0; the “Epitope mapping … of subject P106” value amounted to 0; the “Epitope mapping … of subject P107” value amounted to 0; the “Epitope mapping … of subject P108” value is listed as 0. Also, in assay [1], the “Epitope mapping … of subject P109” value was found to be 0; the “Epitope mapping … of subject P201” value is 0; the “Epitope mapping … of subject P202” value was 0; the “Epitope mapping … of subject P203” value worked out at 0. In assay [1], the “Epitope mapping … of subject P204” value came to 0; the “Epitope mapping … of subject P205” value was 0; the “Epitope mapping … of subject P206” value is 0; the “Epitope mapping … of subject P207” value came out at 0. Moreover, in assay [1], the “Epitope mapping … of subject P208” value amounted to 0; the “Epitope mapping … of subject P209” value came to 0; the “Epitope mapping … of subject P210” value is listed as 0. The “Reactivity of antisera with peptide” value in assay [2] (setting [3]) is on record as 0.050. For the same substance, the “Reactivity of antisera with peptide” value in assay [2] (setting [4]) is given as 0.058. In assay [2] (setting [5]), the “Reactivity of antisera with peptide” value was found to be 0.047. Further, in assay [2] (setting [6]), the “Reactivity of antisera with peptide” value is listed as 0.050.
